Reference: patent publication US12492181B2, “Gem-disubstituted piperidine melanocortin subtype-2 receptor (MC2R) antagonists and uses thereof” (Crinetics Pharmaceuticals, Inc., priority 2019, dated 2025)

Target: T1, hMC2 receptor (crude hMC2R membranes from CRE-bla-CHO-K1 cells stably expressing hMC2 receptor and hMRAP accessory protein) (Homo sapiens, UniProt Q01718)
T1 construct: crude membrane fractions
Assay: hMC2 membrane binding assay ([125I]ACTH (1-39) Tyr23, SPA)
Settings: displacement of 0.2 nM [125I]ACTH (1-39) Tyr23 from hMC2R membranes, 1.5 hours at room temperature; read-out: MC2R binding potency
Summary of the method: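 Ki values come from non-linear regression of SPA scintillation counts, with compounds displacing [125I]ACTH(1-39) Tyr23. Membranes come from CRE-bla-CHO-K1 cells stably expressing hMC2 receptor together with hMRAP. They are preincubated with WGA-coated PVT SPA beads in 50 mM HEPES pH 7.4 with 0.20% BSA, Mg2+, Ca2+ and protease inhibitors.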

T1 sequence (Q01718 whole entry): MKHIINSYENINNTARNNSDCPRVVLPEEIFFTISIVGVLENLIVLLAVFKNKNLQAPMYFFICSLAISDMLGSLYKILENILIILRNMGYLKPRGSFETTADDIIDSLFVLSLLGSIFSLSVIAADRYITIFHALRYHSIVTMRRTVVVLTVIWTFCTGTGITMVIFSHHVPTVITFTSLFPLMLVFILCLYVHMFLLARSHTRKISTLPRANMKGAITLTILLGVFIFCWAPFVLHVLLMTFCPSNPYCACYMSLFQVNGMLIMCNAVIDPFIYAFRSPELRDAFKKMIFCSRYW
T1 sequence (Q8TCY5 whole entry partner): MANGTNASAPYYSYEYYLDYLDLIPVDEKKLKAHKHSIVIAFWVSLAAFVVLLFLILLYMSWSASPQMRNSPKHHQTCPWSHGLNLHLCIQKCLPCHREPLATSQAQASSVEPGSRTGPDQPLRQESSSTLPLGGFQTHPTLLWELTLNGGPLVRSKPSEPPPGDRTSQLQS

Ki [nM] | Compound
< 10 | CCOc1ncccc1-c1ccc(C2(NC(=O)CCN(C)C)CCN(c3ccc(C(F)(F)F)cc3C#N)CC2)cn1 [Compound 2-10, N-{1-[2-cyano-4-(trifluoromethyl)phenyl]-4-{2′-ethoxy-[2,3′-bipyridin]-5-yl}piperidin-4-yl}-3-(dimethylamino)propanamide]
10 to 100 | CCOc1ncccc1-c1ccc(C2(NC(=O)[C@@H]3CCCN3C)CCN(c3ccc(C(F)(F)F)cc3C#N)CC2)cc1 [Compound 2-11, (2S)—N-{1-[2-cyano-4-(trifluoromethyl)phenyl]-4-[4-(2-ethoxypyridin-3-yl)phenyl]piperidin-4-yl}-1-methylpyrrolidine-2-carboxamide]
10 to 100 | CCOc1ncccc1-c1ccc(C2(NC(=O)O[C@@H]3CCN(C)C3)CCN(c3ccc(C(F)(F)F)cc3C#N)CC2)cc1 [Compound 2-12, (3R)-1-methylpyrrolidin-3-yl N-{1-[2-cyano-4-(trifluoromethyl)phenyl]-4-[4-(2-ethoxypyridin-3-yl)phenyl]piperidin-4-yl}carbamate]
10 to 100 | CCOc1ncccc1-c1ccc(C2(NC(=O)O[C@H]3CCN(C)C3)CCN(c3ccc(C(F)(F)F)cc3C#N)CC2)cc1 [Compound 2-13, (3S)-1-methylpyrrolidin-3-yl N-{1-[2-cyano-4-(trifluoromethyl)phenyl]-4-[4-(2-ethoxypyridin-3-yl)phenyl]piperidin-4-yl}carbamate]
10 to 100 | CCOc1ncccc1-c1ccc(C2(NCCO)CCN(c3ccc(C(F)(F)F)cc3C#N)CC2)cn1 [Compound 2-14, 2-(4-{2′-ethoxy-[2,3′-bipyridin]-5-yl}-4-[(2-hydroxyethyl)amino]piperidin-1-yl)-5-(trifluoromethyl)benzonitrile]
10 to 100 | CCOc1ncccc1-c1ccc(C2(NCCNC)CCN(c3ccc(C(F)(F)F)cc3C#N)CC2)cn1 [Compound 2-15, 2-(4-{2′-ethoxy-[2,3′-bipyridin]-5-yl}-4-{[2-(methylamino)ethyl]amino}piperidin-1-yl)-5-(trifluoromethyl)benzonitrile]
10 to 100 | CCOc1ncccc1-c1ccc(C2(NC(=O)C3CN(C)C3)CCN(c3ccc(C(F)(F)F)cc3C#N)CC2)cc1 [Compound 2-16, N-{1-[2-cyano-4-(trifluoromethyl)phenyl]-4-[4-(2-ethoxypyridin-3-yl)phenyl]piperidin-4-yl}-1-methylazetidine-3-carboxamide]
10 to 100 | CCOc1ncccc1-c1ccc(C2(NC(=O)[C@H]3CCCN3C)CCN(c3ccc(C(F)(F)F)cc3C#N)CC2)cc1 [Compound 2-17, (2R)—N-{1-[2-cyano-4-(trifluoromethyl)phenyl]-4-[4-(2-ethoxypyridin-3-yl)phenyl]piperidin-4-yl}-1-methylpyrrolidine-2-carboxamide]
< 10 | CCOc1ncccc1-c1ccc(C2(NC(=O)O[C@H]3CCN(C)C3)CCN(c3ccc(C(F)(F)F)cc3C#N)CC2)cn1 [Compound 2-18, (3S)-1-methylpyrrolidin-3-yl N-{1-[2-cyano-4-(trifluoromethyl)phenyl]-4-{2′-ethoxy-[2,3′-bipyridin]-5-yl}piperidin-4-yl}carbamate]
< 10 | CCOc1ncccc1-c1ccc(C2(NC(=O)N[C@@H]3CCN(C)C3)CCN(c3ccc(C(F)(F)F)cc3C#N)CC2)cn1 [Compound 2-19, 1-{1-[2-cyano-4-(trifluoromethyl)phenyl]-4-{2′-ethoxy-[2,3′-bipyridin]-5-yl}piperidin-4-yl}-3-[(3R)-1-methylpyrrolidin-3-yl]urea]
< 10 | CCOc1ncccc1-c1ccc(C2(NC(=O)N[C@H]3CCN(C)C3)CCN(c3ccc(C(F)(F)F)cc3C#N)CC2)cn1 [Compound 2-20, 1-{1-[2-cyano-4-(trifluoromethyl)phenyl]-4-{2′-ethoxy-[2,3′-bipyridin]-5-yl}piperidin-4-yl}-3-[(3S)-1-methylpyrrolidin-3-yl]urea]
< 10 | CCOc1ncccc1-c1ccc(C2(NC(=O)N3CC[C@@H](NC)C3)CCN(c3ccc(C(F)(F)F)cc3C#N)CC2)cn1 [Compound 2-21]
< 10 | CCOc1ncccc1-c1ccc(C2(NC(=O)N3CC(NC)C3)CCN(c3ccc(C(F)(F)F)cc3C#N)CC2)cn1 [Compound 2-23, N-{1-[2-cyano-4-(trifluoromethyl)phenyl]-4-{2′-ethoxy-[2,3′-bipyridin]-5-yl}piperidin-4-yl}-3-(methylamino)azetidine-1-carboxamide]
< 10 | CCOc1ncccc1-c1ccc(C2(NC(=O)N3CC[C@H](NC)C3)CCN(c3ccc(C(F)(F)F)cc3C#N)CC2)cn1 [Compound 2-24, (3S)—N-{1-[2-cyano-4-(trifluoromethyl)phenyl]-4-{2′-ethoxy-[2,3′-bipyridin]-5-yl}piperidin-4-yl}-3-(methylamino)pyrrolidine-1-carboxamide]
< 10 | CCOc1ccccc1-c1ccc(C2(NC(=O)C3CN(C)C3)CCN(c3ccc(Cl)cc3C#N)CC2)cn1 [Compound 2-25, N-[1-(4-chloro-2-cyanophenyl)-4-[6-(2-ethoxyphenyl)pyridin-3-yl]piperidin-4-yl]-1-methylazetidine-3-carboxamide]
< 10 | CCOc1ncccc1-c1ccc(C2(NC(=O)CN(C)C)CCN(c3ccc(C(F)(F)F)cc3C#N)CC2)cn1 [Compound 2-26, N-{1-[2-cyano-4-(trifluoromethyl)phenyl]-4-{2′-ethoxy-[2,3′-bipyridin]-5-yl}piperidin-4-yl}-2-(dimethylamino)acetamide]
< 10 | CCOc1ccccc1-c1ccc(C2(NC(=O)[C@H]3CCN(C)C3)CCN(c3ccc(C(F)(F)F)cc3C#N)CC2)cn1 [Compound 2-27, (3S)—N-{1-[2-cyano-4-(trifluoromethyl)phenyl]-4-[6-(2-ethoxyphenyl)pyridin-3-yl]piperidin-4-yl}-1-methylpyrrolidine-3-carboxamide]
< 10 | CCOc1ccccc1-c1ccc(C2(NC(=O)[C@H]3CCN(C)C3)CCN(c3ccc(Cl)cc3C#N)CC2)cn1 [Compound 2-28, (3S)—N-[1-(4-chloro-2-cyanophenyl)-4-[6-(2-ethoxyphenyl)pyridin-3-yl]piperidin-4-yl]-1-methylpyrrolidine-3-carboxamide]
< 10 | CCOc1ccccc1-c1ccc(C2(NC(=O)[C@@H]3CCN(C)C3)CCN(c3ccc(Cl)cc3C#N)CC2)cn1 [Compound 2-29, (3R)—N-[1-(4-chloro-2-cyanophenyl)-4-[6-(2-ethoxyphenyl)pyridin-3-yl]piperidin-4-yl]-1-methylpyrrolidine-3-carboxamide]
< 10 | CCOc1ccccc1-c1ccc(C2(NC(=O)CCN(C)C)CCN(c3ccc(Cl)cc3C#N)CC2)cn1 [Compound 2-30, N-[1-(4-chloro-2-cyanophenyl)-4-[6-(2-ethoxyphenyl)pyridin-3-yl]piperidin-4-yl]-3-(dimethylamino)propanamide]
< 10 | CCOc1ccccc1-c1ccc(C2(NC(=O)CN(C)C)CCN(c3ccc(Cl)cc3C#N)CC2)cn1 [Compound 2-31, N-[1-(4-chloro-2-cyanophenyl)-4-[6-(2-ethoxyphenyl)pyridin-3-yl]piperidin-4-yl]-2-(dimethylamino)acetamide]
< 10 | CCOc1ncccc1-c1ccc(C2(NC(=O)C3CN(C)C3)CCN(c3ccc(C(F)(F)F)cc3C#N)CC2)cn1 [Compound 2-32, N-{1-[2-cyano-4-(trifluoromethyl)phenyl]-4-{2′-ethoxy-[2,3′-bipyridin]-5-yl}piperidin-4-yl}-1-methylazetidine-3-carboxamide]
